In publication PMC11861906, “Structural basis for lipid-mediated activation of G protein-coupled receptor GPR55” (Nature Communications, 2025):

Experiments:
[1] = target: wt GPR55 (Gα13 mutant Q373D) (Homo sapiens, UniProt Q9Y2T6); assay: BRET² G protein dissociation assay, wt GPR55 with Gα13-Q373D; format: cell-based; details: for BRET2 response, Mean (plotted, Fig. S4): GPR55-wt-G13-Q373D
Protocol: (§1) Next, we used a mutagenesis approach to further explore the Gα13 selectivity of GPR55. The striking difference in the sequence between the two G protein subtypes guided the design of four Gα13 mutants that are in close contact with GPR55 by replacing the residues with the respective Gα12 amino acid (L374^-4I, Q373^-5D, H368^-10Q, R331D). The mutants were tested individually for their ability to be activated by GPR55 using the same G protein dissociation assay. […] The single Gα13-mutants affected the potency of LPI and ML184 only to a minor extend compared to wt Gα13 (Supplementary Table S3).
(§2) G protein dissociation assays were performed according to the original protocols of the TRUPATH BRET² assay[47],[87] but with subtle modifications as previously described[61],[88],[89]. All reagents and cells were obtained from Thermo Fisher Scientific unless indicated otherwise. The coding sequences for the G protein biosensors[47] (Gα12-Rluc8, Gα13-Rluc8, wt Gβ3, and Gγ9-GFP), the wt GPR55, the construct used for cryo-EM (with GFP bearing a G67A mutation to disrupt fluorescence properties[48] for BRET² assays), GPR55 binding pocket mutants (G152^4.56F, G152^4.56W, N171^ECL2Q, N171^ECL2A, T176^5.33A, R253^6.62A), and the wt TBXA2R were codon-optimized for Homo sapiens, gene-synthesized, and sub-cloned into pcDNA^TM3.1(+) between NheI and HindIII restriction sites by GeneArt (Thermo Fisher Scientific). […] Freshly grown cells were washed with Dulbecco’s Balanced Salt Solution (DPBS, cat. #14200075) and detached using trypsin-ethylenediaminetetraacetic acid (trypsin-EDTA) (cat. #25300-062). Then, the cells were reconstituted to 500,000 cells per mL with fresh medium, and 1,000,000 cells were seeded into each well of a 6-well plate. After 3 h incubation at 37 °C and 5% CO2, adherent cells were transfected with 600 ng DNA (1:1:1:1 ratio of plasmid DNA for GPR55, wt Gβ3, Gγ9-GFP, and Gα12-Rluc8 or Gα13-Rluc8). Plasmid DNA was mixed with 1.5 µL Lipofectamine^TM 2000 (cat. #11668027) in Opti-MEM^TM medium (cat. #31985062) and incubated for 20 min. Then, the mixture was added to each well of the 6-well plate following 24 h incubation at 37 °C and 5% CO2. Transfected cells were washed with DPBS, detached using EDTA (Versene, cat. #15040066), and reconstituted into fresh medium at 500,000 cells mL^−1. From this suspension, 50,000 cells were seeded into each well of a white-bottom 96-well plate (Nunc^TM MicroWell^TM 96 wells, cat. #136101) following overnight incubation at 37 °C and 5% CO2. Then, the adherent cells were washed with assay medium [Hank’s balanced salt solution (HBSS, cat. #14065056) plus 20 mM HEPES pH 7.4 (cat. #15630056)] and finally reconstituted into 50 µL of the same medium. […] Methoxy e-Coelenterazine was used as luciferase substrate (Prolume Purple, NanoLight Technology, cat. #369), reconstituted at 1 mM in methanol and diluted to 37.5 µM with assay buffer (7.5 µM final assay concentration). The assay was started by the addition of 20 µL luciferase substrate to each well of the assay plate using a Multidrop^TM Combi reagent dispenser (Thermo Fisher Scientific), followed by 5 min incubation at room temperature. Then, 30 µL of agonist dilutions or DMSO control was added (final DMSO concentration 1.5%), followed by an additional 5 min incubation at room temperature. BRET² measurements were performed with a PHERAstar® FSX microplate reader (BMG LABTECH) using a BRET² filter (donor emission 370–450 nm, acceptor emission 500–530 nm) at the maximum fluorescence gain of 3600. BRET² ratios were calculated by dividing GFP emission signals from Rluc8 emission counts.

GPR55 = tested on: GPR55; set-up: method as in PMID 21534610; details: β-arrestin recruitment assays; read-out: reported potency; cited from earlier work
[2] = target: wt GPR55 (Gα13 mutant H368Q) (Homo sapiens, UniProt Q9Y2T6); assay: BRET² G protein dissociation assay, wt GPR55 with Gα13-H368Q; format: cell-based; details: for BRET2 response, Mean (plotted, Fig. S4): GPR55-wt-G13-H368Q
Protocol: as §1, §2

[3] = target: wt GPR55 (Gα13 mutant L374I) (Homo sapiens, UniProt Q9Y2T6); assay: BRET² G protein dissociation assay, wt GPR55 with Gα13-L374I; format: cell-based; details: for BRET2 response, Mean (plotted, Fig. S4): GPR55-wt-G13-L374I
Protocol: as §1, §2

[4] = target: wt GPR55 (Gα13 mutant R331D) (Homo sapiens, UniProt Q9Y2T6); assay: BRET² G protein dissociation assay, wt GPR55 with Gα13-R331D; format: cell-based; details: for BRET2 response, Mean (plotted, Fig. S4): GPR55-wt-G13-R331D
Protocol: as §1, §2

Chain of wt GPR55 (Gα13 mutant Q373D) (Q9Y2T6 whole entry, stated change not applied): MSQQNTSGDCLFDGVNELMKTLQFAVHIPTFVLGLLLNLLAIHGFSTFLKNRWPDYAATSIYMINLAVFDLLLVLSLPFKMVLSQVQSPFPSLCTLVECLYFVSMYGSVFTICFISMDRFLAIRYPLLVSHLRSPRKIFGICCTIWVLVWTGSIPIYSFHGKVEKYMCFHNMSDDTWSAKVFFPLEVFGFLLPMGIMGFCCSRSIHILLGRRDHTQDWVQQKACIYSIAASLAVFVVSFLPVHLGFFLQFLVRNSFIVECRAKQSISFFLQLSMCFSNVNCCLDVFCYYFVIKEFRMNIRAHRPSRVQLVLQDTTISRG
Chain of wt GPR55 (Gα13 mutant Q373D) (Q14344 with tags, fused parts or gaps Q373D partner): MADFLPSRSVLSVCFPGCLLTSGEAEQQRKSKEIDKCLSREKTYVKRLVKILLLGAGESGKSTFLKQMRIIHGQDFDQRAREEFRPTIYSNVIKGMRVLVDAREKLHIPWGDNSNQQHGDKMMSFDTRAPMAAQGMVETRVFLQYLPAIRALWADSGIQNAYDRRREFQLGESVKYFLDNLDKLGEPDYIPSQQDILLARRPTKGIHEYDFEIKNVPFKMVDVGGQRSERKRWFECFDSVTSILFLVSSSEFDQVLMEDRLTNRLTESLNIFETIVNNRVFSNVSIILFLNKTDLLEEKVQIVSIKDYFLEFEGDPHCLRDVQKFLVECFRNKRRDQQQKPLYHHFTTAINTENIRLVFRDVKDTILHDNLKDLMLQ
Chain of wt GPR55 (Gα13 mutant Q373D) (P16520 whole entry partner): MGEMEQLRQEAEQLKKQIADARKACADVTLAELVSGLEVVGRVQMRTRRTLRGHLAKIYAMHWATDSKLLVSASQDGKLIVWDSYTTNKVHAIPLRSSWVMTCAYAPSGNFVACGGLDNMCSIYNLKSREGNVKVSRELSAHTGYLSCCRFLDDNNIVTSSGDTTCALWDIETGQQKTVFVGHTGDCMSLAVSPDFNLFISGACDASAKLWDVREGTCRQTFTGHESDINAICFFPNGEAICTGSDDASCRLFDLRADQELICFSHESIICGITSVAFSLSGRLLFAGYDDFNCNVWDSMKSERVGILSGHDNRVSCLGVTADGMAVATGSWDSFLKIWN
Chain of wt GPR55 (Gα13 mutant Q373D) (O14610 1-66 partner limits assumed): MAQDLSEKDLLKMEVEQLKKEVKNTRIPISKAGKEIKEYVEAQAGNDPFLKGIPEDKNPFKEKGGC
Chain of wt GPR55 (Gα13 mutant H368Q) (Q9Y2T6 whole entry, stated change not applied): as the sequence (Q9Y2T6 whole entry, stated change not applied) above
Chain of wt GPR55 (Gα13 mutant H368Q) (Q14344 with tags, fused parts or gaps H368Q partner): as the sequence (Q14344 with tags, fused parts or gaps Q373D partner) above, with H368Q, D373Q counted along it
Chain of wt GPR55 (Gα13 mutant H368Q) (P16520 whole entry partner): as the sequence (P16520 whole entry partner) above
Chain of wt GPR55 (Gα13 mutant H368Q) (O14610 1-66 partner limits assumed): as the sequence (O14610 1-66 partner limits assumed) above
Chain of wt GPR55 (Gα13 mutant R331D) (Q9Y2T6 whole entry, stated change not applied): as the sequence (Q9Y2T6 whole entry, stated change not applied) above
Chain of wt GPR55 (Gα13 mutant R331D) (Q14344 whole entry R331D partner): as the sequence (Q14344 with tags, fused parts or gaps Q373D partner) above, with R331D, D373Q counted along it
Chain of wt GPR55 (Gα13 mutant R331D) (P16520 whole entry partner): as the sequence (P16520 whole entry partner) above
Chain of wt GPR55 (Gα13 mutant R331D) (O14610 1-66 partner limits assumed): as the sequence (O14610 1-66 partner limits assumed) above
Chain of wt GPR55 (Gα13 mutant L374I) (Q9Y2T6 whole entry, stated change not applied): as the sequence (Q9Y2T6 whole entry, stated change not applied) above
Chain of wt GPR55 (Gα13 mutant L374I) (Q14344 with tags, fused parts or gaps L374I partner): as the sequence (Q14344 with tags, fused parts or gaps Q373D partner) above, with D373Q, L374I counted along it
Chain of wt GPR55 (Gα13 mutant L374I) (P16520 whole entry partner): as the sequence (P16520 whole entry partner) above
Chain of wt GPR55 (Gα13 mutant L374I) (O14610 1-66 partner limits assumed): as the sequence (O14610 1-66 partner limits assumed) above

BRET2 response, Mean (plotted, Fig. S4) ([1]; concentration 300 pM): -0.0016 | BRET2 response, Mean (plotted, Fig. S4) ([1]; concentration 1e-9 M): -0.008467 | BRET2 response, Mean (plotted, Fig. S4) ([1]; concentration 3e-9 M): -0.01797 | BRET2 response, Mean (plotted, Fig. S4) ([1]; concentration 1e-8 M): -0.03595 | BRET2 response, Mean (plotted, Fig. S4) ([1]; concentration 3e-8 M): -0.05377 | BRET2 response, Mean (plotted, Fig. S4) ([1]; concentration 1e-7 M): -0.06678 | BRET2 response, Mean (plotted, Fig. S4) ([1]; concentration 3e-7 M): -0.07328 | BRET2 response, Mean (plotted, Fig. S4) ([1]; concentration 1e-6 M): -0.07808 | BRET2 response, Mean (plotted, Fig. S4) ([1]; concentration 3e-6 M): -0.08238 | BRET2 response, Mean (plotted, Fig. S4) ([1]; concentration 1e-5 M): -0.08622 | BRET2 response, Mean (plotted, Fig. S4) ([1]; concentration 3e-5 M): -0.08798 | EC50 ([1]; wt GPR55, Gα13-Q373D): 17 nM | Emax at 30 µM ([1]; wt GPR55, Gα13-Q373D, 30 µM ligand, same normalization, read-out: Efficacy ± SEM (%)): 94 ± 7% | BRET2 response, Mean (plotted, Fig. S4) ([2]; concentration 300 pM): -0.005683 | BRET2 response, Mean (plotted, Fig. S4) ([2]; concentration 1e-9 M): -0.005417 | BRET2 response, Mean (plotted, Fig. S4) ([2]; concentration 3e-9 M): -0.01235 | BRET2 response, Mean (plotted, Fig. S4) ([2]; concentration 1e-8 M): -0.02205 | BRET2 response, Mean (plotted, Fig. S4) ([2]; concentration 3e-8 M): -0.02877 | BRET2 response, Mean (plotted, Fig. S4) ([2]; concentration 1e-7 M): -0.03593 | BRET2 response, Mean (plotted, Fig. S4) ([2]; concentration 3e-7 M): -0.04192 | BRET2 response, Mean (plotted, Fig. S4) ([2]; concentration 1e-6 M): -0.04487 | BRET2 response, Mean (plotted, Fig. S4) ([2]; concentration 3e-6 M): -0.0483 | BRET2 response, Mean (plotted, Fig. S4) ([2]; concentration 1e-5 M): -0.05252 | BRET2 response, Mean (plotted, Fig. S4) ([2]; concentration 3e-5 M): -0.05477 | EC50 ([2]; wt GPR55, Gα13-H368Q): 29.5 nM | Emax at 30 µM ([2]; wt GPR55, Gα13-H368Q, 30 µM ligand, same normalization, read-out: Efficacy ± SEM (%)): 101 ± 4% | BRET2 response, Mean (plotted, Fig. S4) ([3]; concentration 300 pM): -0.00585 | BRET2 response, Mean (plotted, Fig. S4) ([3]; concentration 1e-9 M): -0.001933 | BRET2 response, Mean (plotted, Fig. S4) ([3]; concentration 3e-9 M): -0.00955 | BRET2 response, Mean (plotted, Fig. S4) ([3]; concentration 1e-8 M): -0.02387 | BRET2 response, Mean (plotted, Fig. S4) ([3]; concentration 3e-8 M): -0.04258 | BRET2 response, Mean (plotted, Fig. S4) ([3]; concentration 1e-7 M): -0.06613 | BRET2 response, Mean (plotted, Fig. S4) ([3]; concentration 3e-7 M): -0.07745 | BRET2 response, Mean (plotted, Fig. S4) ([3]; concentration 1e-6 M): -0.0833 | BRET2 response, Mean (plotted, Fig. S4) ([3]; concentration 3e-6 M): -0.08843 | BRET2 response, Mean (plotted, Fig. S4) ([3]; concentration 1e-5 M): -0.09448 | BRET2 response, Mean (plotted, Fig. S4) ([3]; concentration 3e-5 M): -0.09637 | EC50 ([3]; wt GPR55, Gα13-L374I): 36.3 nM | Emax at 30 µM ([3]; wt GPR55, Gα13-L374I, 30 µM ligand, same normalization, read-out: Efficacy ± SEM (%)): 84 ± 1% | BRET2 response, Mean (plotted, Fig. S4) ([4]; concentration 300 pM): -0.00035 | BRET2 response, Mean (plotted, Fig. S4) ([4]; concentration 1e-9 M): -0.0002667 | BRET2 response, Mean (plotted, Fig. S4) ([4]; concentration 3e-9 M): -0.009133 | BRET2 response, Mean (plotted, Fig. S4) ([4]; concentration 1e-8 M): -0.02147 | BRET2 response, Mean (plotted, Fig. S4) ([4]; concentration 3e-8 M): -0.04232 | BRET2 response, Mean (plotted, Fig. S4) ([4]; concentration 1e-7 M): -0.06272 | BRET2 response, Mean (plotted, Fig. S4) ([4]; concentration 3e-7 M): -0.07305 | BRET2 response, Mean (plotted, Fig. S4) ([4]; concentration 1e-6 M): -0.07957 | BRET2 response, Mean (plotted, Fig. S4) ([4]; concentration 3e-6 M): -0.0831 | BRET2 response, Mean (plotted, Fig. S4) ([4]; concentration 1e-5 M): -0.08698 | BRET2 response, Mean (plotted, Fig. S4) ([4]; concentration 3e-5 M): -0.08977 | EC50 ([4]; wt GPR55, Gα13-R331D): 33.9 nM | Emax at 30 µM ([4]; wt GPR55, Gα13-R331D, 30 µM ligand, same normalization, read-out: Efficacy ± SEM (%)): 89 ± 3%
SMILES: Cc1cccc(N2CCN(C(=O)c3cc(S(=O)(=O)N(C)C)ccc3N3CCCC3)CC2)c1C [ML184, 3-[[4-(2,3-dimethylphenyl)-1-piperazinyl]carbonyl]-N,N-dimethyl-4-(1-pyrrolidinyl)benzenesulfonamide]
EC50 (GPR55): 260 nM
